Data set [1] addresses T1, RARα (Mus musculus, UniProt P11416).
T1 construct: expressed in transfected cells; host or cells: COS-7
T1 sequence (P11416 183-417 limits assumed): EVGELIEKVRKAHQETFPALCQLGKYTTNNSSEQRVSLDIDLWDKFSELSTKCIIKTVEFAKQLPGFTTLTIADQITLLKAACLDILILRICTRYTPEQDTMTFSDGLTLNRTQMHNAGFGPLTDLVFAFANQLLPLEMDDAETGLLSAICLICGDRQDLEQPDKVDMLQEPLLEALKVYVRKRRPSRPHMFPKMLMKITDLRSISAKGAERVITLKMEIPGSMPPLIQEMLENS
Briefly: RAR alpha transactivation assay (gal4-RAR LBD fusion, luciferase reporter, COS-7 cells). It counts as cell-based. Conditions: mouse RAR ligand binding domain; usually three experiments; read-out: α EC50. The procedure:
(§1) Compounds were tested in transactivation assays at the RAR α, β and γ receptors.
(§2) Transactivation assays for RAR alpha, beta and gamma receptors:
(§3) Transcriptional transactivation assays have been performed with gal4 fusion receptor constructs, created using each of the mouse RAR ligand-binding domains, co-transfected with the pFR-luc (Stratagene) reporter construct in COS-7 cells.
(§4) Briefly, on day one, 96 well plates were seeded with 8000 cells per well then left to recover overnight. On day two, the cells were co-transfected with 100ng of reporter plasmid and 10ng of the appropriate receptor plasmid per well using lipofectamine (Invitrogen). On day three, the lipofectamine containing media was replaced by a DMEM without phenol red, followed by the addition of novel compounds dissolved in 1µl of DMSO to each well’s 100µl total volume. Finally, on day four, the cells were lysed and their luciferase substrate was provided by the BrightGlo reagent (Promega), the plates were then read on the MicroBeta TriLux (Perkin Elmer).
(§5) Data for test compounds are quoted as EC50 values. Where replicate data has been generated the data are quoted as the mean EC50 from the separate experiments.
On the technique in general: In a reporter assay the amount or activity of a reporter protein is the signal.

Data set [2] deals with T2, RARβ (Mus musculus, UniProt P22605).
T2 construct: expressed in transfected cells; host or cells: COS-7
T2 sequence (P22605 210-444 limits assumed): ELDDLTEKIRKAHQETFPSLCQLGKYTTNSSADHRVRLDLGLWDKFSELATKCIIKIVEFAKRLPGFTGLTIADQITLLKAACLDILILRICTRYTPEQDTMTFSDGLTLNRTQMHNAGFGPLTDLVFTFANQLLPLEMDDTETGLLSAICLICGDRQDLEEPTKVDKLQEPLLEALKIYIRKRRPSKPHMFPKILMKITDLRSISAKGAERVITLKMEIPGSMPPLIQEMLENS
In words: RAR beta transactivation assay (gal4-RAR LBD fusion, luciferase reporter, COS-7 cells). It is filed as cell-based. The procedure:
as §1, §2, §3, §4, §5

The target in data set [3] is T3, Cyp450 1A2 (Homo sapiens, UniProt P05177).
T3 sequence (P05177 1-516): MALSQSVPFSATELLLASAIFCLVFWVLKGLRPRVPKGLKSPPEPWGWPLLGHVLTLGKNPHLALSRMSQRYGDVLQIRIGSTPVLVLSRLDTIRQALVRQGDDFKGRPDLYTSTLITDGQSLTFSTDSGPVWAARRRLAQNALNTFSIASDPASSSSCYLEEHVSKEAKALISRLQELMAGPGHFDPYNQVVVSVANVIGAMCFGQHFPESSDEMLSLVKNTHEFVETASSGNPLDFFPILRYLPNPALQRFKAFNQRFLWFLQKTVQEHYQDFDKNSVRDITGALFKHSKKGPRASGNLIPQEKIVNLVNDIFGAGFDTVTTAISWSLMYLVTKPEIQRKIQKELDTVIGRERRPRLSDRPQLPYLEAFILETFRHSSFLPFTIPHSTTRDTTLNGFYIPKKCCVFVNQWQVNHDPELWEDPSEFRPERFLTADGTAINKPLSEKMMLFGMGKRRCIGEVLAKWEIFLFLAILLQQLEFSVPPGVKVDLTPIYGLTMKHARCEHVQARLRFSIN
Briefly: Cyp450 inhibition, 1A2. It is filed as in vitro ADME. Conditions: isoform 1A2.

Data set [4] deals with three bacterial strains. It is filed as cell-based.
Data set [5] relates to Cerebellar neurons. In words: Neurite outgrowth in cerebellar cultures on CHO-MAG monolayer. It is filed as cell-based. Conditions: 24 hr treatment, 1 × 10^−8–1 × 10^−6 M. The procedure: Compound 10 was evaluated for neurite outgrowth/branching in cerebellar cultures. Cerebellar cultures grown on a monolayer of CHO-MAG were treated with RARβ agonists and neurite outgrowth was assessed by immunostaining and neurite length quantification.[10]
Fig. 1 Effects of RARβ agonists 10 on neurite outgrowth. Cerebellar neurons grown on a monolayer of CHO-MAG cells were treated for 24 hr with either vehicle (V) or increasing doses of RARβ agonists (1 × 10^−8–1 × 10^−6 M). Both RARβ agonists increase neurite outgrowth in a dose dependant manner. Results are means from 3 independent experiments. Statistical analysis was done using Student’s t-test between vehicle and each drug’s highest dose. Error bars are SEM and **p ≤ 0.001, *p ≤ 0.01.

pEC50, pIC50: −log10 of the molar value.

This is an account of results in PMC6419571, “Discovery and lead optimisation of a potent, selective and orally bioavailable RARβ agonist for the potential treatment of nerve injury” (Bioorganic & Medicinal Chemistry Letters, 2019).

With `Cc1ccc(C)c2oc(-c3nc(-c4ccc(C(=O)O)cc4)no3)cc12` [Compound 10, 4-(5-(4,7-dimethylbenzofuran-2-yl)-1,2,4-oxadiazol-3-yl)benzoic acid], the negative logarithm of the EC50 (pEC50) is 7.59 in data set [1] and 8.72 in data set [2] (mouse RAR ligand binding domain, usually three experiments, read-out: β EC50). Moreover, the “Fold selectivity for β over α” value in data set [2] (EC50 ratio of α to β, mouse, Tables 1 and 4) worked out at 13. For the same molecule, in data set [2] (EC50 ratio of γ to β, mouse), the “Fold selectivity for β over γ” value worked out at 5.6. Moreover, the “agonist behaviour (full/partial) relative to ATRA” value in data set [2] (maximum upper asymptote within 20% of that found for ATRA) is listed as “full agonist”. Also, the negative-log IC50 (pIC50) in data set [3] was below 4.60. In addition, the Ames test result in data set [4] was “inactive”. Also, the “neurite length / outgrowth” value in data set [5] was “increased neurite length in a dose dependant manner”.

The term pEC50 denotes the EC50 on a negative log10 scale, so that one unit is a factor of ten. The pIC50 is −log10 of the IC50, conventionally taken in molar units. A higher pIC50 goes with a low IC50.
